What was measured:
Experiment in all cases: KINOMEscan
Format in all cases: binding
Details in all cases: read-out: percent of control
EGFR(L747-E749del,A750P) = EGFR(L747-E749del,A750P) (Homo sapiens (Human), UniProt P00533, A750P/DEL747-749)
Description: (§1) In vitro profiling of Compound I-2 (1 μM) was performed using the DiscoveRx KINOMEscan® platform.

RET (M918T) = RET (M918T) (Homo sapiens (Human), UniProt P07949, M918T)
Description: as §1

[1] = molecular target: RSK4 (Kin.Dom.1-N-terminal) (Homo sapiens (Human), UniProt Q9UK32)
Description: as §1

PIM3 = PIM3 (Homo sapiens (Human), UniProt Q86V86)
Description: as §1

AMPK-alpha1 = AMPK-alpha1 (Homo sapiens (Human), UniProt Q13131)
Description: as §1

MST1 = MST1 (Homo sapiens (Human), UniProt Q13043)
Description: as §1

FYN = FYN (Homo sapiens (Human), UniProt P06241)
Description: as §1

CDKL2 = CDKL2 (Homo sapiens (Human), UniProt Q92772)
Description: as §1

DDR2 = DDR2 (Homo sapiens (Human), UniProt Q16832)
Description: as §1

[2] = molecular target: ABL1(T315I)-nonphosphorylated (Homo sapiens (Human), UniProt P00519, T315I)
Description: as §1

MAP3K2 = MAP3K2 (Homo sapiens (Human), UniProt Q9Y2U5)
Description: as §1

PIM2 = PIM2 (Homo sapiens (Human), UniProt Q9P1W9)
Description: as §1

SGK3 = SGK3 (Homo sapiens (Human), UniProt Q96BR1)
Sequence of SGK3 (Q96BR1 whole entry): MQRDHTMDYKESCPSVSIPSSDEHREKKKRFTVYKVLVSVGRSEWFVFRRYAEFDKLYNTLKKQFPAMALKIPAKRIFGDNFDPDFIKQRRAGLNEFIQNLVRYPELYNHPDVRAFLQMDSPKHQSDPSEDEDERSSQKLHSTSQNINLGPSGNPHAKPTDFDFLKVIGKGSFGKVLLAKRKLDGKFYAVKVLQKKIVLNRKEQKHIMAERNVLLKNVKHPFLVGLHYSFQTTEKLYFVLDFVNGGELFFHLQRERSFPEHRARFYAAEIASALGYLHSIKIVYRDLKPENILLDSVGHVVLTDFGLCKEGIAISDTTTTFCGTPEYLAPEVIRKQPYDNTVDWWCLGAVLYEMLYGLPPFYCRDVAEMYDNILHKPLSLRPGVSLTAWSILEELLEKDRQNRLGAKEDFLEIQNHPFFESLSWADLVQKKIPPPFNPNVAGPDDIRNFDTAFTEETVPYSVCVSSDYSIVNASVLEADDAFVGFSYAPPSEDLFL
Description: as §1

MAP3K3 = MAP3K3 (Homo sapiens (Human), UniProt Q99759)
Description: as §1

INSR = INSR (Homo sapiens (Human), UniProt P06213)
Sequence of INSR (P06213 28-1382): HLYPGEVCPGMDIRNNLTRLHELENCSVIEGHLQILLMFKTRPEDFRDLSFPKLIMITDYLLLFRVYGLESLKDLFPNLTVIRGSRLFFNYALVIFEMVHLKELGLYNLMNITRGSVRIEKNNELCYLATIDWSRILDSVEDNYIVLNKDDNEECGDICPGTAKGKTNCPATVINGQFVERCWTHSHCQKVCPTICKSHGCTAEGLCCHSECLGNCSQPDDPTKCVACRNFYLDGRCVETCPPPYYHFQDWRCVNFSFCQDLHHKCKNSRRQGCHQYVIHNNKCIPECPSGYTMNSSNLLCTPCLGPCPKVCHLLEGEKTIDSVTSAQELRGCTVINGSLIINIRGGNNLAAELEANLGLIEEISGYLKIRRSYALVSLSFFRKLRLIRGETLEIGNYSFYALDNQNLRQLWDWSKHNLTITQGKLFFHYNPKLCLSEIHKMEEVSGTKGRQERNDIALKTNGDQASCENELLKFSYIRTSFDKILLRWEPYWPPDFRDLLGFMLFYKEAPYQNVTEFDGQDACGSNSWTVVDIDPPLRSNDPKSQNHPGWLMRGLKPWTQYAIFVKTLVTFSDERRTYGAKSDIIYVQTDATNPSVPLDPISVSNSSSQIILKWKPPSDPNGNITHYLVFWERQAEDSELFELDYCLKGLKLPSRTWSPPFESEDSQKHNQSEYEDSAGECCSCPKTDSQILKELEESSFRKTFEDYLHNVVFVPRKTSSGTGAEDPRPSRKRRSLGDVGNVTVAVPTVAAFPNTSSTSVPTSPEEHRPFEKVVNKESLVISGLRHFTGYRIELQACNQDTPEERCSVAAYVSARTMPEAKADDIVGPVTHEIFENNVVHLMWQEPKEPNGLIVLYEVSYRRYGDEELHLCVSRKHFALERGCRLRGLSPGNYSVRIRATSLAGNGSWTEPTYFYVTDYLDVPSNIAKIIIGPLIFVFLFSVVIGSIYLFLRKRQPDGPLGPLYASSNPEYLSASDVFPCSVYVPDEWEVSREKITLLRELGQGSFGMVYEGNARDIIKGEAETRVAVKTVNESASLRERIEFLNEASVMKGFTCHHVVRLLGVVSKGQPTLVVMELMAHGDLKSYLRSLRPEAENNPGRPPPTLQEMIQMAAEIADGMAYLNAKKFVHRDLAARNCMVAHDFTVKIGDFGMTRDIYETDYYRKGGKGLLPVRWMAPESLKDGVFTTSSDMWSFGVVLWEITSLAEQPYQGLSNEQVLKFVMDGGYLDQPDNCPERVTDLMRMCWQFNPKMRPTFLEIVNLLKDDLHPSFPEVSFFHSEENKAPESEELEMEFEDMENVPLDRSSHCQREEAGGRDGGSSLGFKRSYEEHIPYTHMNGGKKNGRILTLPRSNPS
Description: as §1

PRKCE = PRKCE (Homo sapiens (Human), UniProt Q02156)
Description: as §1

TYR = TYR (Homo sapiens (Human), UniProt Q06418)
Sequence of TYR (Q06418 41-890): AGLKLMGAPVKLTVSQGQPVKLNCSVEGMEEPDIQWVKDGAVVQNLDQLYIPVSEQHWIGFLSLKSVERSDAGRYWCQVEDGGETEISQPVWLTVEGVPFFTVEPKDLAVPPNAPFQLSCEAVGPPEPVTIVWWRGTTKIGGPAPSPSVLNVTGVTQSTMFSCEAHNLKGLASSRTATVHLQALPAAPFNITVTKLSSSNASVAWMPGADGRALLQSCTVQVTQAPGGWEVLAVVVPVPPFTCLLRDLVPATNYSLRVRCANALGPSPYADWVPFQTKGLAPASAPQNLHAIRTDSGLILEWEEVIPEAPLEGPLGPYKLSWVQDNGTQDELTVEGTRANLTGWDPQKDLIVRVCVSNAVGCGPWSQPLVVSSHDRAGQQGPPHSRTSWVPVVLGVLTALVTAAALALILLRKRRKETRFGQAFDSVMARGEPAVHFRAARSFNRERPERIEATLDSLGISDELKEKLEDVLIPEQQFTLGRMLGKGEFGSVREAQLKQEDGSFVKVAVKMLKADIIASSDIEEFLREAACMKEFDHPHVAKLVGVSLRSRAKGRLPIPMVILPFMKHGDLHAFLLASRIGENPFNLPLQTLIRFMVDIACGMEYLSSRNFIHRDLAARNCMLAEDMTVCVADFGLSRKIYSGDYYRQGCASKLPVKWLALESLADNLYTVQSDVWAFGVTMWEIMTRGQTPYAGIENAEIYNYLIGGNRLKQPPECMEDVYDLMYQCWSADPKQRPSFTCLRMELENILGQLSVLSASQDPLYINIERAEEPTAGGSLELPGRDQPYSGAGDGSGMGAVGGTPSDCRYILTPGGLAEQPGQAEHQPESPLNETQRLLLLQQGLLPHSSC
Description: as §1

CSNK1A1 = CSNK1A1 (Homo sapiens (Human), UniProt P48729)
Sequence of CSNK1A1 (P48729 whole entry): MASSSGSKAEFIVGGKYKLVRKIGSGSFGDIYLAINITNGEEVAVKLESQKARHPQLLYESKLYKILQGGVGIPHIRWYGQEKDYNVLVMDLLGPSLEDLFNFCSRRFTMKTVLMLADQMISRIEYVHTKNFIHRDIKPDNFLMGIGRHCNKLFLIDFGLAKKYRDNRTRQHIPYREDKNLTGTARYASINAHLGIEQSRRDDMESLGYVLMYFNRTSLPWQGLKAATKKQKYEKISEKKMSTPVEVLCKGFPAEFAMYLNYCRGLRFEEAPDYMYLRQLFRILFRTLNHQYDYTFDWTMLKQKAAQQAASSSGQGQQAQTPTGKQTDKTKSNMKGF
Description: as §1

CAMK4 = CAMK4 (Homo sapiens (Human), UniProt Q16566)
Description: as §1

CDC2L5 = CDC2L5 (Homo sapiens (Human), UniProt Q14004)
Description: as §1

p38-alpha = p38-alpha (Homo sapiens (Human), UniProt Q16539)
Sequence of p38-alpha (Q16539 whole entry): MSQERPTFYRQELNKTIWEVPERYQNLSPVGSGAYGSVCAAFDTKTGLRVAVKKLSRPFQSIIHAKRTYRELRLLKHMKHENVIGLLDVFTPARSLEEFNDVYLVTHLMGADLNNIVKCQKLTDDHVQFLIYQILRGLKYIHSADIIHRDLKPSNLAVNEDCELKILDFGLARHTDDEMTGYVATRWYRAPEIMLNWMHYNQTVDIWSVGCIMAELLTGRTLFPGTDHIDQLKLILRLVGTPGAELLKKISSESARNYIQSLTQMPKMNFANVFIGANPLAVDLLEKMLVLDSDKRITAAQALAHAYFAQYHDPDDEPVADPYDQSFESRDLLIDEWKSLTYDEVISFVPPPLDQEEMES
Description: as §1

CDC2L2 = CDC2L2 (Homo sapiens (Human), UniProt Q9UQ88)
Description: as §1

EPHB 1 = EPHB 1 (Homo sapiens (Human), UniProt P54762)
Description: as §1

RIPK4 = RIPK4 (Homo sapiens (Human), UniProt P57078)
Description: as §1

IKK-alpha = IKK-alpha (Homo sapiens (Human), UniProt O15111)
Description: as §1

MEK4 = MEK4 (Homo sapiens (Human), UniProt P45985)
Sequence of MEK4 (P45985 whole entry): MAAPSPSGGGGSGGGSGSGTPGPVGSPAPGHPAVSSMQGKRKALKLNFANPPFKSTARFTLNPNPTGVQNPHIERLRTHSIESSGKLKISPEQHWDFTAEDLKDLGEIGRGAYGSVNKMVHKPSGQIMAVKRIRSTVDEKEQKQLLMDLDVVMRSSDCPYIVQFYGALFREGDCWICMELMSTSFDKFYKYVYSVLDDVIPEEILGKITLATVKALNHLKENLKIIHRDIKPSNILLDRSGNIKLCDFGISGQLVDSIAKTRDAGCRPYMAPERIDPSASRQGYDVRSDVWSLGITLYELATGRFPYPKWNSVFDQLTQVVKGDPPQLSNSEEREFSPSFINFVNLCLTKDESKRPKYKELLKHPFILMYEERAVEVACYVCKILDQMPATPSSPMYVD
Description: as §1

SGK2 = SGK2 (Homo sapiens (Human), UniProt Q9HBY8)
Sequence of SGK2 (Q9HBY8 whole entry): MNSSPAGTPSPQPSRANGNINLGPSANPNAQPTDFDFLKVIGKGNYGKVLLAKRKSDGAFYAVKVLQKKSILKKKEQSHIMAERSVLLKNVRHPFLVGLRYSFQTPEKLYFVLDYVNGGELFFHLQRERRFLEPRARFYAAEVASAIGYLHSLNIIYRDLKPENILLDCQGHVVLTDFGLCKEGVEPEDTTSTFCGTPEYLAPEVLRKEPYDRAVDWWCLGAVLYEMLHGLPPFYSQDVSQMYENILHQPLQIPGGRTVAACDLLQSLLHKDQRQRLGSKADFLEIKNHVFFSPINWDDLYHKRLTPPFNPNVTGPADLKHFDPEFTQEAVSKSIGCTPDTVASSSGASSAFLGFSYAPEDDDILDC
Description: as §1

CDK4 = CDK4 (Homo sapiens (Human), UniProt P11802)
Description: as §1

PFTK1 = PFTK1 (Homo sapiens (Human), UniProt O94921)
Description: as §1

CDK4-cyclinD3 = CDK4-cyclinD3 (Homo sapiens (Human), UniProt P11802)
Description: as §1

MAPKAPK2 = MAPKAPK2 (Homo sapiens (Human), UniProt P49137)
Description: as §1

PIP5K2C = PIP5K2C (Homo sapiens (Human), UniProt Q8TBX8)
Description: as §1

TSSK3 = TSSK3 (Homo sapiens (Human), UniProt Q96PN8)
Description: as §1

LATS1 = LATS1 (Homo sapiens (Human), UniProt O95835)
Description: as §1

DCAMKL3 = DCAMKL3 (Homo sapiens (Human), UniProt Q9C098)
Sequence of DCAMKL3 (Q9C098 whole entry, looked up): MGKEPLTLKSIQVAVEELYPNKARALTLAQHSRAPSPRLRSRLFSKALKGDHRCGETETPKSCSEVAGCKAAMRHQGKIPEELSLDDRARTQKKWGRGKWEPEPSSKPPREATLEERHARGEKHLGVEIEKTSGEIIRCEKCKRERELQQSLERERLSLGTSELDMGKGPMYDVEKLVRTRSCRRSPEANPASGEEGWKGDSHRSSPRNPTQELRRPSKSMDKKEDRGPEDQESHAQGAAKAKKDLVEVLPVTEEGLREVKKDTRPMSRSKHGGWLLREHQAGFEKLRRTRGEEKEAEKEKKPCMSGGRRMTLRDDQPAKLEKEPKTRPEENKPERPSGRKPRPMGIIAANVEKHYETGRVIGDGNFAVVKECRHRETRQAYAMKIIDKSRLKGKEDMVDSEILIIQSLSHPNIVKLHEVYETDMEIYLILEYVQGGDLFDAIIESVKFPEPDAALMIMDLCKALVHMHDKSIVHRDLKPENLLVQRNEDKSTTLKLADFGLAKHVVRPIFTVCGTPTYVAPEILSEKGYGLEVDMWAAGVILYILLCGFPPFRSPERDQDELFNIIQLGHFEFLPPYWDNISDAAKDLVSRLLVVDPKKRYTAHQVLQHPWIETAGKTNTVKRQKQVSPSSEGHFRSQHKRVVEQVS
Description: as §1

FLT3 (D835Y) = FLT3 (D835Y) (Homo sapiens (Human), UniProt P36888, D835Y)
Description: as §1

ABL2 = ABL2 (Homo sapiens (Human), UniProt P42684)
Description: as §1

EGFR(L858R) = EGFR(L858R) (Homo sapiens (Human), UniProt P00533, L858R)
Description: as §1

Structure (SMILES) | remaining binding at 1 µM (EGFR(L747-E749del,A750P)) [%] | remaining binding at 1 µM (RET (M918T)) [%] | remaining binding at 1 µM [1] [%] | remaining binding at 1 µM (PIM3) [%] | remaining binding at 1 µM (AMPK-alpha1) [%] | remaining binding at 1 µM (MST1) [%] | remaining binding at 1 µM (FYN) [%] | remaining binding at 1 µM (CDKL2) [%] | remaining binding at 1 µM (DDR2) [%] | remaining binding at 1 µM [2] [%] | remaining binding at 1 µM (MAP3K2) [%] | remaining binding at 1 µM (PIM2) [%] | remaining binding at 1 µM (SGK3) [%] | remaining binding at 1 µM (MAP3K3) [%] | remaining binding at 1 µM (INSR) [%] | remaining binding at 1 µM (PRKCE) [%] | remaining binding at 1 µM (TYR) [%] | remaining binding at 1 µM (CSNK1A1) [%] | remaining binding at 1 µM (CAMK4) [%] | remaining binding at 1 µM (CDC2L5) [%] | further results
CCN1CCN(Cc2cc(NC(=O)c3ccc(C)c(-c4ccc5nc(NC(=O)C6CC6)cn5n4)c3)cc(C(F)(F)F)c2)CC1 [Compound I-2, 3-(2-(cyclopropanecarboxamido)imidazo[1,2-b]pyridazin-6-yl)-N-(3-((4-ethylpiperazin-1-yl)methyl)-5-(trifluoromethyl)phenyl)-4-methylbenzamide] | 14 | 0.05 | 93 | 90 | 99 | 30 | 4.1 | 0 | 0.1 | 0 | 28 | 96 | 100 | 48 | 0.85 | 86 | 26 | 73 | 94 | 0.3 | remaining binding at 1 µM (p38-alpha): 8.4%; remaining binding at 1 µM (CDC2L2): 27%; remaining binding at 1 µM (EPHB 1): 0.65%; remaining binding at 1 µM (RIPK4): 98%; remaining binding at 1 µM (IKK-alpha): 53%; remaining binding at 1 µM (MEK4): 98%; remaining binding at 1 µM (SGK2): 87%; remaining binding at 1 µM (CDK4): 46%; remaining binding at 1 µM (PFTK1): 0.35%; remaining binding at 1 µM (CDK4-cyclinD3): 41%; remaining binding at 1 µM (MAPKAPK2): 72%; remaining binding at 1 µM (PIP5K2C): 5.7%; remaining binding at 1 µM (TSSK3): 100%; remaining binding at 1 µM (LATS1): 87%; remaining binding at 1 µM (DCAMKL3): 91%; remaining binding at 1 µM (FLT3 (D835Y)): 23%; remaining binding at 1 µM (ABL2): 0.4%; remaining binding at 1 µM (EGFR(L858R)): 76%
CCN1CCN(Cc2cc(NC(=O)c3ccc(C)c(-c4ccc5nc(NC(=O)C6CC6)cn5c4)c3)cc(C(F)(F)F)c2)CC1 [Compound I-6, 3-(2-(cyclopropanecarboxamido)imidazo[1,2-a]pyridin-6-yl)-N-(3-((4-ethylpiperazin-1-yl)methyl)-5-(trifluoromethyl)phenyl)-4-methylbenzamide] | 18 | 0 | 87 | 89 | 90 | 60 | 3.7 | 0.8 | 0 | 0 | 78 | 97 | 100 | 56 | 3.2 | 83 | 47 | 100 | 96 | 0.75 | remaining binding at 1 µM (p38-alpha): 26%; remaining binding at 1 µM (CDC2L2): 34%; remaining binding at 1 µM (EPHB 1): 0.25%; remaining binding at 1 µM (RIPK4): 100%; remaining binding at 1 µM (IKK-alpha): 63%; remaining binding at 1 µM (MEK4): 71%; remaining binding at 1 µM (SGK2): 76%; remaining binding at 1 µM (CDK4): 36%; remaining binding at 1 µM (PFTK1): 2.4%; remaining binding at 1 µM (CDK4-cyclinD3): 64%; remaining binding at 1 µM (MAPKAPK2): 96%; remaining binding at 1 µM (PIP5K2C): 46%; remaining binding at 1 µM (TSSK3): 91%; remaining binding at 1 µM (LATS1): 85%; remaining binding at 1 µM (DCAMKL3): 96%; remaining binding at 1 µM (FLT3 (D835Y)): 27%; remaining binding at 1 µM (ABL2): 0.4%; remaining binding at 1 µM (EGFR(L858R)): 71%

From patent publication US20230391768A2, “IMIDAZOPYRIDINE DERIVATIVES AND AZA-IMIDAZOPYRIDINE DERIVATIVES AS JANUS KINASE 2 INHIBITORS AND USES THEREOF” (Dana-Farber Cancer Institute, Inc., priority 2018, published 2023)
